# Active and inactive are the calls of the source. The calls are words filed in the database; no cut-off is given here.
# How the values were obtained:
# C6 = assay: Cytotoxicity against rat C6 cells assessed as reduction in cell viability after 72 hrs by MTT assay; format: functional, cell-based; conditions: C6, 72 h
# HaCaT = assay: Cytotoxicity against human HaCaT cells assessed as reduction in cell viability after 72 hrs by MTT assay; format: cell-based
# CNE = assay: Cytotoxicity against human CNE1 cells assessed as reduction in cell viability after 72 hrs by MTT assay; format: functional, cell-based
# MDA-MB-231 = assay: Cytotoxicity against human MDA-MB-231 cells assessed as reduction in cell viability after 72 hrs by MTT assay; format: functional, cell-based; conditions: MDA-MB-231, 72 h
# MCF7 [1] = assay: Cytotoxicity against human MCF7 cells assessed as reduction in cell viability after 72 hrs by MTT assay; format: functional, cell-based; conditions: MCF7, 72 h
# HepG2 = assay: Cytotoxicity against human HepG2 cells assessed as reduction in cell viability after 72 hrs by MTT assay; format: functional, cell-based; conditions: HepG2, 72 h
# [2] = Octanol-water partition coefficient, log P of the compound at 10 mM after 24 hrs by UV-vis spectroscopic method; format: physicochemical
# [3] = Cytotoxicity against human NCI-EC1 cells assessed as reduction in cell viability after 72 hrs by MTT assay; format: functional, cell-based
# MCF7 [4] = assay: Cell cycle arrest in human MCF7 cells assessed as accumulation at G1 phase at 10 uM after 72 hrs by propidium iodide staining based flow cytometry (reference value: 66.42%); format: functional
# MCF7 [5] = assay: Cell cycle arrest in human MCF7 cells assessed as accumulation at G1 phase at 20 uM after 72 hrs by propidium iodide staining based flow cytometry (reference value: 66.42%); format: functional
# MCF7 [6] = assay: Cell cycle arrest in human MCF7 cells assessed as accumulation at G1 phase at 40 uM after 72 hrs by propidium iodide staining based flow cytometry (reference value: 66.42%); format: functional
# MCF7 [7] = assay: Cell cycle arrest in human MCF7 cells assessed as accumulation at G2/M phase at 10 uM after 72 hrs by propidium iodide staining based flow cytometry (reference value: 17.99%); format: functional
# MCF7 [8] = assay: Cell cycle arrest in human MCF7 cells assessed as accumulation at G2/M phase at 20 uM after 72 hrs by propidium iodide staining based flow cytometry (reference value: 17.99%); format: functional
# MCF7 [9] = assay: Cell cycle arrest in human MCF7 cells assessed as accumulation at G2/M phase at 40 uM after 72 hrs by propidium iodide staining based flow cytometry (reference value: 17.99%); format: functional
# MCF7 [10] = assay: Cell cycle arrest in human MCF7 cells assessed as accumulation at S phase at 10 uM after 72 hrs by propidium iodide staining based flow cytometry (reference value: 15.59%); format: functional
# MCF7 [11] = assay: Cell cycle arrest in human MCF7 cells assessed as accumulation at S phase at 20 uM after 72 hrs by propidium iodide staining based flow cytometry (reference value: 15.59%); format: functional
# MCF7 [12] = assay: Cell cycle arrest in human MCF7 cells assessed as accumulation at S phase at 40 uM after 72 hrs by propidium iodide staining based flow cytometry (reference value: 15.59%); format: functional
# MCF7 [13] = assay: Cell cycle arrest in human MCF7 cells assessed as accumulation at sub-G1 phase at 10 to 40 uM after 24 to 72 hrs by propidium iodide staining based flow cytometry; format: functional
# MCF7 [14] = assay: Cell cycle arrest in human MCF7 cells assessed as accumulation at G1 phase at 10 uM after 24 hrs by propidium iodide staining based flow cytometry (reference value: 69.92%); format: functional
# MCF7 [15] = assay: Cell cycle arrest in human MCF7 cells assessed as accumulation at G1 phase at 20 uM after 24 hrs by propidium iodide staining based flow cytometry (reference value: 69.92%); format: functional
# MCF7 [16] = assay: Cell cycle arrest in human MCF7 cells assessed as accumulation at G1 phase at 40 uM after 24 hrs by propidium iodide staining based flow cytometry (reference value: 69.92%); format: functional
# MCF7 [17] = assay: Cell cycle arrest in human MCF7 cells assessed as accumulation at G2/M phase at 10 uM after 24 hrs by propidium iodide staining based flow cytometry (reference value: 6.91%); format: functional
# MCF7 [18] = assay: Cell cycle arrest in human MCF7 cells assessed as accumulation at G2/M phase at 20 uM after 24 hrs by propidium iodide staining based flow cytometry (reference value: 6.91%); format: functional
# MCF7 [19] = assay: Cell cycle arrest in human MCF7 cells assessed as accumulation at G2/M phase at 40 uM after 24 hrs by propidium iodide staining based flow cytometry (reference value: 6.91%); format: functional
# MCF7 [20] = assay: Cell cycle arrest in human MCF7 cells assessed as accumulation at S phase at 10 uM after 24 hrs by propidium iodide staining based flow cytometry (reference value: 23.16%); format: functional
# MCF7 [21] = assay: Cell cycle arrest in human MCF7 cells assessed as accumulation at S phase at 20 uM after 24 hrs by propidium iodide staining based flow cytometry (reference value: 23.16%); format: functional
# MCF7 [22] = assay: Cell cycle arrest in human MCF7 cells assessed as accumulation at S phase at 40 uM after 24 hrs by propidium iodide staining based flow cytometry (reference value: 23.16%); format: functional
# Quadruplex DNA [23] = assay: Effect on conformation of c-Myc G-quadruplex DNA (unknown origin) at 1 mM measured every 3 mins by CD spectroscopic analysis; format: nucleic-acid assay
# MCF7 [24] = assay: Induction of apoptosis in human MCF7 cells assessed as live cells at 10 uM after 72 hrs by Annexin-V/PI staining based flow cytometry (reference value: 97.7%); format: functional
# MCF7 [25] = assay: Induction of apoptosis in human MCF7 cells assessed as live cells at 20 uM after 72 hrs by Annexin-V/PI staining based flow cytometry (reference value: 97.7%); format: functional
# MCF7 [26] = assay: Induction of apoptosis in human MCF7 cells assessed as live cells at 40 uM after 72 hrs by Annexin-V/PI staining based flow cytometry (reference value: 97.7%); format: functional
# MCF7 [27] = assay: Induction of apoptosis in human MCF7 cells assessed as early apoptotic cells at 10 uM after 72 hrs by Annexin-V/PI staining based flow cytometry (reference value: 0.28%); format: functional
# MCF7 [28] = assay: Induction of apoptosis in human MCF7 cells assessed as early apoptotic cells at 20 uM after 72 hrs by Annexin-V/PI staining based flow cytometry (reference value: 0.28%); format: functional
# MCF7 [29] = assay: Induction of apoptosis in human MCF7 cells assessed as early apoptotic cells at 40 uM after 72 hrs by Annexin-V/PI staining based flow cytometry (reference value: 0.28%); format: functional
# MCF7 [30] = assay: Induction of apoptosis in human MCF7 cells assessed as late apoptotic cells at 10 uM after 72 hrs by Annexin-V/PI staining based flow cytometry (reference value: 0.60%); format: functional
# MCF7 [31] = assay: Induction of apoptosis in human MCF7 cells assessed as late apoptotic cells at 20 uM after 72 hrs by Annexin-V/PI staining based flow cytometry (reference value: 0.60%); format: functional
# MCF7 [32] = assay: Induction of apoptosis in human MCF7 cells assessed as late apoptotic cells at 40 uM after 72 hrs by Annexin-V/PI staining based flow cytometry (reference value: 0.60%); format: functional
# MCF7 [33] = assay: Induction of apoptosis in human MCF7 cells assessed as necrotic cells at 10 uM after 72 hrs by Annexin-V/PI staining based flow cytometry (reference value: 1.36%); format: functional
# MCF7 [34] = assay: Induction of apoptosis in human MCF7 cells assessed as necrotic cells at 20 uM after 72 hrs by Annexin-V/PI staining based flow cytometry (reference value: 1.36%); format: functional
# MCF7 [35] = assay: Induction of apoptosis in human MCF7 cells assessed as necrotic cells at 40 uM after 72 hrs by Annexin-V/PI staining based flow cytometry (reference value: 1.36%); format: functional
# MCF7 [36] = assay: Induction of apoptosis in human MCF7 cells assessed as live cells at 10 uM after 24 hrs by Annexin-V/PI staining based flow cytometry (reference value: 94.88%); format: functional
# MCF7 [37] = assay: Induction of apoptosis in human MCF7 cells assessed as live cells at 20 uM after 24 hrs by Annexin-V/PI staining based flow cytometry (reference value: 94.88%); format: functional
# MCF7 [38] = assay: Induction of apoptosis in human MCF7 cells assessed as live cells at 40 uM after 24 hrs by Annexin-V/PI staining based flow cytometry (reference value: 94.88%); format: functional
# MCF7 [39] = assay: Induction of apoptosis in human MCF7 cells assessed as early apoptotic cells at 10 uM after 24 hrs by Annexin-V/PI staining based flow cytometry (reference value: 0.13%); format: functional
# MCF7 [40] = assay: Induction of apoptosis in human MCF7 cells assessed as early apoptotic cells at 20 uM after 24 hrs by Annexin-V/PI staining based flow cytometry (reference value: 0.13%); format: functional
# MCF7 [41] = assay: Induction of apoptosis in human MCF7 cells assessed as early apoptotic cells at 40 uM after 24 hrs by Annexin-V/PI staining based flow cytometry (reference value: 0.13%); format: functional
# MCF7 [42] = assay: Induction of apoptosis in human MCF7 cells assessed as late apoptotic cells at 10 uM after 24 hrs by Annexin-V/PI staining based flow cytometry (reference value: 0.96%); format: functional
# MCF7 [43] = assay: Induction of apoptosis in human MCF7 cells assessed as late apoptotic cells at 20 uM after 24 hrs by Annexin-V/PI staining based flow cytometry (reference value: 0.96%); format: functional
# MCF7 [44] = assay: Induction of apoptosis in human MCF7 cells assessed as late apoptotic cells at 40 uM after 24 hrs by Annexin-V/PI staining based flow cytometry (reference value: 0.96%); format: functional
# MCF7 [45] = assay: Induction of apoptosis in human MCF7 cells assessed as necrotic cells at 10 uM after 24 hrs by Annexin-V/PI staining based flow cytometry (reference value: 4.03%); format: functional
# MCF7 [46] = assay: Induction of apoptosis in human MCF7 cells assessed as necrotic cells at 20 uM after 24 hrs by Annexin-V/PI staining based flow cytometry (reference value: 4.03%); format: functional
# MCF7 [47] = assay: Induction of apoptosis in human MCF7 cells assessed as necrotic cells at 40 uM after 24 hrs by Annexin-V/PI staining based flow cytometry (reference value: 4.03%); format: functional
# Quadruplex DNA [48] = assay: Binding affinity to c-Myc G-quadruplex DNA (unknown origin) at 20 uM incubated for 3 mins by electronic absorption spectra method; format: nucleic-acid assay
# Quadruplex DNA [49] = assay: Stabilization of c-Myc G-quadruplex DNA in human MCF7 cells assessed as downregulation of c-Myc protein expression after 72 hrs by Western blot method; format: cell-based
# Quadruplex DNA [50] = assay: Binding affinity to c-Myc G-quadruplex DNA (unknown origin) assessed as hypochromism at 20 uM incubated for 3 mins by electronic absorption spectra method; format: nucleic-acid assay
# MCF7 [51] = assay: Cell cycle arrest in human MCF7 cells assessed as accumulation at G2/M phase after 72 hrs by propidium iodide staining based flow cytometry; format: functional
# Quadruplex DNA [52] = assay: Binding affinity to c-Myc G-quadruplex DNA (unknown origin) at 20 uM incubated for 2 mins by fluorescence emission spectra method; format: nucleic-acid assay
compound,measurement,setting,value
CCOC1OC(=O)C(Cl)=C1Nc1ccc(-c2ccc(N)cc2)cc1 (configuration not stated),IC50,C6,49.6 µM
same,IC50,HaCaT,44.8 µM
same,IC50,CNE,> 100 µM
same,IC50,MDA-MB-231,37.7 µM
same,IC50,MCF7 [1],> 100 µM
same,IC50,HepG2,> 100 µM
same,"logP at 24 h, 10000 µM",[2],1.64
COC1OC(=O)C(Br)=C1Nc1ccc(-c2ccccc2)cc1 (configuration not stated),IC50,C6,37.9 µM
same,IC50,HaCaT,67.5 µM
same,IC50,CNE,52.6 µM
same,IC50,[3],48 µM
same,IC50,MDA-MB-231,97.5 µM
same,IC50,MCF7 [1],37.8 µM
same,IC50,HepG2,45.2 µM
same,"logP at 24 h, 10000 µM",[2],1.33
CC(=O)OC1OC(=O)C(Br)=C1Nc1ccc(-c2ccc(N)cc2)cc1 (configuration not stated),IC50,C6,15.4 µM
same,IC50,HaCaT,> 100 µM
same,IC50,CNE,49.4 µM
same,IC50,[3],55.1 µM
same,IC50,MDA-MB-231,33.7 µM
same,IC50,MCF7 [1],11.8 µM
same,IC50,HepG2,35.3 µM
same,"logP at 24 h, 10000 µM",[2],1.76
same,Activity,MCF7 [4],63.91%
same,Activity,MCF7 [5],61.38%
same,Activity,MCF7 [6],44.37%
same,Activity,MCF7 [7],20.53%
same,Activity,MCF7 [8],23.44%
same,Activity,MCF7 [9],35.13%
same,Activity,MCF7 [10],15.56%
same,Activity,MCF7 [11],15.18%
same,Activity,MCF7 [12],20.5%
same,Activity,MCF7 [13],inactive
same,Activity,MCF7 [14],66.44%
same,Activity,MCF7 [15],68.3%
same,Activity,MCF7 [16],55.63%
same,Activity,MCF7 [17],9.61%
same,Activity,MCF7 [18],10.59%
same,Activity,MCF7 [19],17.92%
same,Activity,MCF7 [20],23.95%
same,Activity,MCF7 [21],21.11%
same,Activity,MCF7 [22],26.45%
same,Activity,Quadruplex DNA [23],inactive
same,Activity,MCF7 [24],95.8%
same,Activity,MCF7 [25],96.19%
same,Activity,MCF7 [26],93.39%
same,Activity,MCF7 [27],0.32%
same,Activity,MCF7 [28],0.55%
same,Activity,MCF7 [29],0.47%
same,Activity,MCF7 [30],0.67%
same,Activity,MCF7 [31],0.67%
same,Activity,MCF7 [32],1.19%
same,Activity,MCF7 [33],3.2%
same,Activity,MCF7 [34],2.59%
same,Activity,MCF7 [35],4.94%
same,Activity,MCF7 [36],96.89%
same,Activity,MCF7 [37],95.21%
same,Activity,MCF7 [38],95.28%
same,Activity,MCF7 [39],0.16%
same,Activity,MCF7 [40],0.13%
same,Activity,MCF7 [41],4.08%
same,Activity,MCF7 [42],0.13%
same,Activity,MCF7 [43],0.07%
same,Activity,MCF7 [44],0.5%
same,Activity,MCF7 [45],2.82%
same,Activity,MCF7 [46],4.59%
same,Activity,MCF7 [47],0.14%
same,K,Quadruplex DNA [48],1.6 ×10⁷ /M
same,Activity,Quadruplex DNA [49],Dose-dependent effect
same,Activity,Quadruplex DNA [50],28%
same,Activity,MCF7 [51],Dose-dependent effect
same,Activity,Quadruplex DNA [52],Active

# From ChEMBL document CHEMBL4190316, “Synthesis and biological evaluation of 4-biphenylamino-5-halo-2(5H)-furanones as potential anticancer agents” (Eur J Med Chem, 2017)
